Source: paper PMC10641831 (Journal of Medicinal Chemistry, 2023)
Where two headings read alike, the source gives them in different places. Numbered stars: 1 amine (or outer) side, 2 acyl side, 3 side chain; on linkers, the order of the positions; unused ones are H or OH. Bridge positions count the residues as written; N and C are the ends. Square brackets hold non-standard residues; d marks the D form. Peptide text beside a SMILES is read from it. Phe(4-(Z)-phenylazo) = N[C@@H](Cc1ccc(/N=N\c2ccccc2)cc1)C(=O)O; AMPB(E) = O=C(c1ccc(/N=N/c2ccc(CN[*:1])cc2)cc1)[*:2]; X1 = O=C([C@H](Cc1ccc(/N=N/c2ccccc2)cc1)N[*:1])[*:2]; X2 = O=C(c1ccc(/N=N\c2ccc(CN[*:1])cc2)cc1)[*:2]

Experiments:
hOTR = molecular target: T1, hOTR (Homo sapiens, UniProt P30559); assay: IP-One accumulation assay, agonist function, HEK293 cells expressing hOTR; format: cell-based; conditions: for OTR E/Z ratio EC50: ratio of EC50 of E- and Z-isomer; for Emax: HEK293, relative to the effect of OT, read-out: OTR Emax ± SEM; for decrease in potency compared to OT at OTR: EC50 vs OT; for agonist character at OTR: IP-One assay
T1 construct: expressed in transfected cells
T1 sequence (P30559 1-389): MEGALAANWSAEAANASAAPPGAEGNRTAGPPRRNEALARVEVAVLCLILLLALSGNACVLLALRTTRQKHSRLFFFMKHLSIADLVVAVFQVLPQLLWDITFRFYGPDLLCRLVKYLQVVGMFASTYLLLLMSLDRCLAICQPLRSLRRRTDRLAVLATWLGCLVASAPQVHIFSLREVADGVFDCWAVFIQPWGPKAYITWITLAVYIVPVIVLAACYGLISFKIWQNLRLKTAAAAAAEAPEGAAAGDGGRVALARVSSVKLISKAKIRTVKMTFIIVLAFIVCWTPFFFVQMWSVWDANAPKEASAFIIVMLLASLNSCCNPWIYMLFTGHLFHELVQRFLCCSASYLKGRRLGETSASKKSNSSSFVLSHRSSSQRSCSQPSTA

[1] = Photostationary state by analytical C18-RP-HPLC; format: physicochemical; conditions: for PSS (E → Z): irradiation with 340 nm, HEPES buffer; for PSS (Z → E): irradiation with 420 nm (8–17) or 528 nm (18, 19)
Description: All photoprobes were investigated regarding their photophysical properties in aqueous buffer (pH 7.5), mimicking the conditions of the biological functional assays.
1.3.2. Photostationary States
Photostationary states (PSS) were measured on analytical C18-RP-HPLC (flow: 0.3 mL/min, solvent A: H2O (0.05% TFA), solvent B: MeCN). To determine the PSS of the photoswitches, the samples (in 0.1 mM in HEPES buffer + 1% DMSO, pH 7.5) were irradiated first with 340 nm to get the Z-isomer. Afterwards, the sample was irradiated with 420 nm (8-17) or 528 nm (18 and 19), respectively, to get back to the E-isomer. The samples were measured at the isosbestic points.

[2] = Thermal half-life of the Z-isomer (UV/vis, 96-well plate); format: physicochemical; conditions: 25 °C; for t1/2 (thermal half-life, Figure S50): 50 µM in HEPES buffer + 0.25% DMSO, pre-irradiated with 340 nm; for t1/2 (thermal half-life Z to E): preirradiation with 340 nm, HEPES buffer pH 7.4
Description: All photoprobes were investigated regarding their photophysical properties in aqueous buffer (pH 7.5), mimicking the conditions of the biological functional assays. […] Upon irradiation with 340 nm light for 10 s and monitoring via UV/vis spectroscopy, all compounds could be switched to the Z-isomer, reaching the photostationary state (PSS). Compounds 8–17 containing azobenzene could be switched back to the E-isomer by irradiation at 420 nm for 60 s. Compounds 18 and 19 containing arylazopyrazole could be reverted to the E isomer by using 528 nm light. […] The PSS, when switched to the Z-isomer, was consistently good, with a PSS of 81–95%. […] The thermal half-lives of 10 and 12 were also measured at 37 °C, representing the temperature during the biological assays. As expected, the thermal half-lives decreased, however, the ratio of E and Z isomers remained stable during the incubation period of the biological assays (1 h).
Starting materials and commercial reagents were purchased from Acros, Alfa Aesar, Fisher, Fluka, Fluorochem, Merck (Sigma-Aldrich), TCI and VWR and were used without further purification. Solvents were used in p.a. quality or dried according to common procedures if necessary. All reactions with oxygen- or moisture-sensitive reagents were carried out in glassware that was dried before use by heating under vacuum. Dry nitrogen or argon was used for an inert gas atmosphere. All NMR spectra were measured at room temperature (20 °C) using a Bruker Avance 400 (400 MHz for ^1H and 101 MHz for ^13C) or a Bruker Avance 600 (600 MHz for ^1H and 151 MHz for ^13C) NMR spectrometer. All chemical shifts are reported in δ-scale as parts per million [ppm] (multiplicity, coupling constant J, number of protons) relative to the solvent residual peaks. Coupling constants J are given in hertz [Hz]. Abbreviations used for signal multiplicity: ^1H NMR: s = singlet, d = doublet, dd = doublet of doublets, ddd = doublet of doublets of doublets, dt = doublet of triplets, t = triplet, td = triplet of doublets, q = quartet, and m = multiplet. All mass spectra were recorded on an Agilent Q-TOF 6540 UHD, Finnigan MAT SSQ 710 A, Jeol AccuTOF GCX or ThermoQuest Finnigan TSQ 7000 spectrometer. Absorption spectra were recorded on an UV/vis Agilent Cary 50 spectrometer. Thermal half-lives were measured on a 96-well plate in a Thermo Scientific Multiskan Spectrum. Analytical TLC was performed on silica gel-coated alumina plates (MN precoated TLC-sheets ALUGRAM Xtra SIL G/UV254). Visualization was done using UV light (254 or 366 nm) or staining with ninhydrin solution. Column chromatography was performed on a Biotage Isolera One automated flash purification system with a UV/vis detector. Analytical RP-HPLC was carried out on an Agilent 1220 Infinity LC System (column: P/No 00F-4251-B0, Phenomenex Luna 3 μm C18(2) 100 Å, LC column 150 mm × 2.0 mm). Purification by preparative HPLC was conducted on a preparative HPLC Agilent 1260 Infinity LC System [column: P/No 00G-4253-P0-AX, Phenomenex Luna 10 μm C18(2) 100 Å, LC column 250 mm × 21.2 mm]. The eluent systems were used as specified. After the purification process, solvents were removed by lyophilization. Switching experiments were done with a 340 nm LED (SSC VIOSYS CUD4AF1B, 500 mA, 55 mW), 420 nm LED (ILH-XC01-S410-SC211-WIR200, 800 mA, 440 mW), and 528 nm LED (OSRAM Oslon SSL 80 green, 500 mA, 34 mW). Purity of all photoprobes was >95% as determined by analytical RP-HPLC at 220 nm in DMSO.
1.3.4. Thermal Half-lives
Thermal half-lives were measured in a 96-well plate in a Thermo Scientific Multiskan® Spectrum at 25 °C (and at 37 °C for compounds 10 and 12). The solutions (50 µM in HEPES buffer + 0.25% DMSO) were pre-irradiated with 340 nm. The absorption at 335 nm was measured every 3 h. The data was analyzed using Origin 2021.
0,7 1/2 ExpDec1 Fit of Sheet1 B
Modell ExpDec1 0,35 Modell ExpDec1
0,6 Gleichung y = A 1 *e xp (-x/t1 ) + y0 Gleichung y = A 1 *e xp (-x/t1 ) + y0 […]

[3] = IP-One, stable HEK293 hOTR, E = thermal equilibrium, Z = PSS after 340 nm, read-out: OTR EC50 ± SEM
[4] = supplementary CSV, read-out: activity E-isomer OTR
[5] = supplementary CSV, read-out: activity Z-isomer OTR

Compound	EC50 (hOTR; [3])	OTR E/Z ratio EC50 (hOTR)	Emax (hOTR)	PSS (E → Z) [1]	t1/2 (thermal half-life, Figure S50) [2]	t1/2 (thermal half-life Z to E) [2]	also measured
CC[C@H](C)[C@@H]1NC(=O)[C@H](Cc2ccc(/N=N/c3ccccc3)cc2)NC(=O)[C@@H](N)CSSC[C@@H](C(=O)N2CCC[C@H]2C(=O)N[C@@H](CC(C)C)C(=O)NCC(N)=O)NC(=O)[C@H](CC(N)=O)NC(=O)[C@H](CCC(N)=O)NC1=O [E-8] (H-C[X1]IQNCPLG-NH2; disulfide 1-6)	4500 ± 1010 nM	1.3	–	–	–	–	OTR Emax ± SEM (hOTR; relative to the effect of OT): 45 ± 3%
CC[C@H](C)[C@@H]1NC(=O)[C@H](Cc2ccc(O)cc2)NC(=O)[C@@H](N)CSSC[C@@H](C(=O)N[C@@H](Cc2ccc(/N=N/c3ccccc3)cc2)C(=O)N[C@@H](CC(C)C)C(=O)NCC(N)=O)NC(=O)[C@H](CC(N)=O)NC(=O)[C@H](CCC(N)=O)NC1=O [E-9] (H-CYIQNC[X1]LG-NH2; disulfide 1-6)	346 ± 30 nM	2.5	89 ± 1%	–	–	–	–
CC[C@H](C)[C@@H]1NC(=O)[C@H](Cc2ccc(O)cc2)NC(=O)[C@@H](N)CSSC[C@@H](C(=O)NCc2ccc(/N=N/c3ccc(C(=O)NCC(N)=O)cc3)cc2)NC(=O)[C@H](CC(N)=O)NC(=O)[C@H](CCC(N)=O)NC1=O [E-10] (H-CYIQNC[AMPB(E)]G-NH2; disulfide 1-6)	94.6 ± 19 nM	3.1	80 ± 1%	–	–	–	–
CC[C@H](C)[C@@H]1NC(=O)[C@H](Cc2ccc(O)cc2)NC(=O)[C@@H](N)CSSC[C@@H](C(=O)NCc2ccc(/N=N/c3ccc(C(=O)N[C@@H](CC(C)C)C(=O)NCC(N)=O)cc3)cc2)NC(=O)[C@H](CC(N)=O)NC(=O)[C@H](CCC(N)=O)NC1=O [E-11] (H-CYIQNC[AMPB(E)]LG-NH2; disulfide 1-6)	263 ± 21 nM	2.0	75 ± 1%	–	–	–	–
CC[C@H](C)[C@@H]1NC(=O)[C@H](Cc2ccc(/N=N\c3ccccc3)cc2)NC(=O)[C@@H](N)CSSC[C@@H](C(=O)N2CCC[C@H]2C(=O)N[C@@H](CC(C)C)C(=O)NCC(N)=O)NC(=O)[C@H](CC(N)=O)NC(=O)[C@H](CCC(N)=O)NC1=O [Z-8] (H-C[Phe(4-(Z)-phenylazo)]IQNCPLG-NH2; disulfide 1-6)	3500 ± 1890 nM	1.3	35 ± 1%	–	–	–	–
CC[C@H](C)[C@@H]1NC(=O)[C@H](Cc2ccc(O)cc2)NC(=O)[C@@H](N)CSSC[C@@H](C(=O)N[C@@H](Cc2ccc(/N=N\c3ccccc3)cc2)C(=O)N[C@@H](CC(C)C)C(=O)NCC(N)=O)NC(=O)[C@H](CC(N)=O)NC(=O)[C@H](CCC(N)=O)NC1=O [Z-9] (H-CYIQNC[Phe(4-(Z)-phenylazo)]LG-NH2; disulfide 1-6)	136 ± 6 nM	2.5	90 ± 1%	–	–	–	decrease in potency compared to OT at OTR (hOTR): 55 fold
CC[C@H](C)[C@@H]1NC(=O)[C@H](Cc2ccc(O)cc2)NC(=O)[C@@H](N)CSSC[C@@H](C(=O)NCc2ccc(/N=N\c3ccc(C(=O)NCC(N)=O)cc3)cc2)NC(=O)[C@H](CC(N)=O)NC(=O)[C@H](CCC(N)=O)NC1=O [Z-10] (H-CYIQNC[X2]G-NH2; disulfide 1-6)	30.7 ± 4 nM	3.1	92%	–	–	–	decrease in potency compared to OT at OTR (hOTR): 12 fold
CC[C@H](C)[C@@H]1NC(=O)[C@H](Cc2ccc(O)cc2)NC(=O)[C@@H](N)CSSC[C@@H](C(=O)NCc2ccc(/N=N\c3ccc(C(=O)N[C@@H](CC(C)C)C(=O)NCC(N)=O)cc3)cc2)NC(=O)[C@H](CC(N)=O)NC(=O)[C@H](CCC(N)=O)NC1=O [Z-11] (H-CYIQNC[X2]LG-NH2; disulfide 1-6)	134 ± 17 nM	2.0	86 ± 1%	–	–	–	decrease in potency compared to OT at OTR (hOTR): 55 fold
CC[C@H](C)[C@@H]1NC(=O)[C@H](Cc2ccc(/N=N/c3ccccc3)cc2)NC(=O)[C@@H](N)CSSC[C@@H](C(=O)N2CCC[C@H]2C(=O)N[C@@H](CC(C)C)C(=O)NCC(N)=O)NC(=O)[C@H](CC(N)=O)NC(=O)[C@H](CCC(N)=O)NC1=O [compound 8, [AzbS^2]-OT] (H-C[X1]IQNCPLG-NH2; disulfide 1-6)	–	–	35 to 45%	94%	132 h	132 h	decrease in potency compared to OT at OTR (hOTR): > 1400 fold; agonist character at OTR (hOTR): partial agonism; EC50 (hOTR; IP-One, both isomers, read-out: EC50 at OTR): 3000 to 4000 nM; EC50 (hOTR; [4]): 4500 ± 1010 nM; EC50 (hOTR; [5]): 3500 ± 1890 nM
CC[C@H](C)[C@@H]1NC(=O)[C@H](Cc2ccc(O)cc2)NC(=O)[C@@H](N)CSSC[C@@H](C(=O)N[C@@H](Cc2ccc(/N=N/c3ccccc3)cc2)C(=O)N[C@@H](CC(C)C)C(=O)NCC(N)=O)NC(=O)[C@H](CC(N)=O)NC(=O)[C@H](CCC(N)=O)NC1=O [compound 9, [AzbS^7]-OT] (H-CYIQNC[X1]LG-NH2; disulfide 1-6)	–	–	–	93%	72 h	72 h	potency difference between the E and Z isomers at OTR (hOTR; EC50 E vs Z): 2.5 fold; agonist character at OTR (hOTR): full agonist; EC50 (hOTR; [4]): 346 ± 30 nM; EC50 (hOTR; [5]): 136 ± 6 nM
[AzbC(m,m)^1,Dap^6]-VP [compound 17]	–	–	–	93%	686 h	686 h	PSS (Z → E) [1]: 88%
[AzbC(m,o)^1,Dap^6]-VP [compound 16]	–	–	–	89%	74.4 h	74.4 h	PSS (Z → E) [1]: 83%
[AzpC(m)^1,Dap^6]-VP [compound 19]	–	–	–	93%	1310 h	1310 h	PSS (Z → E) [1]: 87%
[AzpC(o)^1,Dap^6]-VP [compound 18]	–	–	–	94%	158 h	158 h	PSS (Z → E) [1]: 82%
